From patent US20090118274A1, “MONOCYCLIC AMINOPROPYL TETRAHYDRO-PYRAZOLO-PYRIDINE MODULATORS OF CATHEPSIN S” (priority 2007, published 2009)

Each compound was assayed against T1, Recombinant human cathepsin S (CatS) (Homo sapiens, UniProt P25774) (assay: Recombinant human cathepsin S (CatS) fluorogenic substrate inhibition assay). Settings: average of results obtained; substrate Z-Valine-Valine-Arginine-AMC 10 μM, pH 5.0; read-out: CatS IC50.
T1 construct: made in house
Assay type: biochemical
Description: Recombinant human cathepsin S (CatS) was expressed in the baculovirus system and purified in one step with a thiopropyl-sepharose column. […] The assay is run in 150 mM sodium acetate pH 5.0 containing 1.5 mM DTT and 150 mM NaCl. […] Measurements are taken every min for 20 min. The rate is calculated from the slope of the increase in fluorescence and the percent inhibition is calculated from this.

T1 sequence (P25774 115-331): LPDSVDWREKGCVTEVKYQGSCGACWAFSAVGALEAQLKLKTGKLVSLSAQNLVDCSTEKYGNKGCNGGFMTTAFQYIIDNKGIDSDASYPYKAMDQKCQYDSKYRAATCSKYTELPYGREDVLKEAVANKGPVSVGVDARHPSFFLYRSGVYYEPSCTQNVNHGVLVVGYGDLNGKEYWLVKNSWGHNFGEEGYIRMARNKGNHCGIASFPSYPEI

| Structure (SMILES) | IC50 [nM] |
| --- | --- |
| CC(C)=CC(=O)NCc1cc(-c2nn(CC(O)CN3CCC(O)CC3)c3c2CN(S(C)(=O)=O)CC3)ccc1C(F)(F)F (stereo not drawn) [Example 154, 3-Methyl-but-2-enoic acid 5-{1-[2-hydroxy-3-(4-hydroxy-piperidin-1-yl)-propyl]-5-methanesulfonyl-4,5,6,7-tetrahydro-1H-pyrazolo[4,3-c]pyridin-3-yl}-2-trifluoromethyl-benzylamide] | 90 |
| CS(=O)(=O)N1CCc2c(c(-c3ccc(Cl)c(CNC(=O)c4ccc(F)cc4)c3)nn2CC(O)CN2CCC(F)(F)C2)C1 (stereo not drawn) [Example 84, N-(2-Chloro-5-{1-[3-(3,3-difluoro-pyrrolidin-1-yl)-2-hydroxy-propyl]-5-methanesulfonyl-4,5,6,7-tetrahydro-1H-pyrazolo[4,3-c]pyridin-3-yl}-benzyl)-4-fluoro-benzamide] | 180 |
| CS(=O)(=O)N1CCc2c(c(-c3ccc(C(F)(F)F)c(CNC(=O)c4ccc(F)cc4)c3)nn2CC(O)CN2CCC(O)C2)C1 (stereo not drawn) [Example 27, 4-Fluoro-N-(5-{1-[2-hydroxy-3-(3-hydroxy-pyrrolidin-1-yl)-propyl]-5-methanesulfonyl-4,5,6,7-tetrahydro-1H-pyrazolo[4,3-c]pyridin-3-yl}-2-trifluoromethyl-benzyl)-benzamide] | 230 |
| CS(=O)(=O)N1CCc2c(c(-c3ccc(C(F)(F)F)c(CNC(=O)c4ccc(F)cc4)c3)nn2CC(O)CN2CCC(CO)CC2)C1 (stereo not drawn) [Example 89, 4-Fluoro-N-(5-{1-[2-hydroxy-3-(4-hydroxymethyl-piperidin-1-yl)-propyl]-5-methanesulfonyl-4,5,6,7-tetrahydro-1H-pyrazolo[4,3-c]pyridin-3-yl}-2-trifluoromethyl-benzyl)-benzamide] | 90 |
| CS(=O)(=O)N1CCc2c(c(-c3ccc(Cl)c(CNC(=O)c4ccc(F)cc4)c3)nn2CC(O)CN2CCC(F)CC2)C1 (stereo not drawn) [Example 82, N-(2-Chloro-5-{1-[3-(4-fluoro-piperidin-1-yl)-2-hydroxy-propyl]-5-methanesulfonyl-4,5,6,7-tetrahydro-1H-pyrazolo[4,3-c]pyridin-3-yl}-benzyl)-4-fluoro-benzamide] | 190 |
| CS(=O)(=O)N1CCc2c(c(-c3ccc(C(F)(F)F)c(CNC(=O)c4ccccc4)c3)nn2CC(O)CN2CCCC2)C1 (stereo not drawn) [Example 56, N-{5-[1-(2-Hydroxy-3-pyrrolidin-1-yl-propyl)-5-methanesulfonyl-4,5,6,7-tetrahydro-1H-pyrazolo[4,3-c]pyridin-3-yl]-2-trifluoromethyl-benzyl}-benzamide] | 250 |

The remaining compounds from weak to strong by IC50, led by results:

| IC50 [nM] | Structure (SMILES) |
| --- | --- |
| 1600 | CS(=O)(=O)N1CCc2c(c(-c3ccc(C(F)(F)F)c(C(=O)Nc4ccccc4)c3)nn2CC(O)CN2CCCC2)C1 (stereo not drawn) [Example 192, 5-[1-(2-Hydroxy-3-pyrrolidin-1-yl-propyl)-5-methanesulfonyl-4,5,6,7-tetrahydro-1H-pyrazolo[4,3-c]pyridin-3-yl]-N-phenyl-2-trifluoromethyl-benzamide] |
| 430 | CC(C)CC(=O)NCc1cc(-c2nn(CC(O)CN3CCC(O)C3)c3c2CN(S(C)(=O)=O)CC3)ccc1C(F)(F)F (stereo not drawn) [Example 246, N-(5-{1-[2-Hydroxy-3-(3-hydroxy-pyrrolidin-1-yl)-propyl]-5-methanesulfonyl-4,5,6,7-tetrahydro-1H-pyrazolo[4,3-c]pyridin-3-yl}-2-trifluoromethyl-benzyl)-3-methyl-butyramide] |
| 270 | CS(=O)(=O)N1CCc2c(c(-c3ccc(C(F)(F)F)c(CNC(=O)c4cc5ccccc5s4)c3)nn2CC(O)CN2CCC3(CCNC3=O)CC2)C1 (stereo not drawn) [Example 157, Benzo[b]thiophene-2-carboxylic acid 5-{1-[2-hydroxy-3-(1-oxo-2,8-diaza-spiro[4.5]dec-8-yl)-propyl]-5-methanesulfonyl-4,5,6,7-tetrahydro-1H-pyrazolo[4,3-c]pyridin-3-yl}-2-trifluoromethyl-benzylamide] |
